Experimental data taken from PMC10087387, “Molecular docking, molecular dynamics simulations and in vitro screening reveal cefixime and ceftriaxone as GSK3β covalent inhibitors” (RSC Advances, 2023).
Like-named read-outs stand apart in the source and are kept apart here.

Columns and labels:
GSK3β [1] = biological target: T1, GSK3β (Homo sapiens, UniProt P49841); experiment: Z'-LYTE kinase assay, […] ATP, […] min preincubation (IC50 […] without preincubation); format: biochemical
T1 construct: gene GSK3B
T1 sequence (P49841 whole entry): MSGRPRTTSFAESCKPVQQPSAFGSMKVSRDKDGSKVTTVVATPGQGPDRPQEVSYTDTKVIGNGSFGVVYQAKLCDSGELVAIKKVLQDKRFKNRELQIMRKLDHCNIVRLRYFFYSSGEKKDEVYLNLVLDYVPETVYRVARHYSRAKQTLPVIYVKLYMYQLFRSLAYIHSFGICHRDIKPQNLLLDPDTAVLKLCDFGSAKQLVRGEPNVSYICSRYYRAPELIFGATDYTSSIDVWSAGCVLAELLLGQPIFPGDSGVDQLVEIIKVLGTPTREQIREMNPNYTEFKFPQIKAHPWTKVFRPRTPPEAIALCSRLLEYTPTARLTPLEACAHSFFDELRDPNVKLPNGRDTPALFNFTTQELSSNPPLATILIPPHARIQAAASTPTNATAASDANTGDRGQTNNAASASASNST

GSK3β [2] = biological target: T1, GSK3β; experiment: as above; format: biochemical; remark: listed apart in the source

Row | SMILES | IC50 (GSK3β [1]) [nM] | IC50 (GSK3β [2]) [nM]
1 | C=CC1=C(C(=O)O)N2C(=O)[C@@H](NC(=O)/C(=N\OCC(=O)O)c3csc(N)n3)[C@H]2SC1 [A, cefixime] | 550 | –
2 | CO/N=C(\C(=O)N[C@@H]1C(=O)N2C(C(=O)O)=C(CSc3nc(=O)c(=O)[nH]n3C)CS[C@H]12)c1csc(N)n1 [B, ceftriaxone] | – | 780
